This note sets out measurements from ChEMBL document CHEMBL5346968, “Exploring Structural Determinants of Bias among D4 Subtype-Selective Dopamine Receptor Agonists” (J Med Chem, 2023).

Data set [1] concerns the target T1, D(2) dopamine receptor (Homo sapiens, UniProt P14416). The data set can be described thus: Displacement of [3H]-N-methylspiperone from human dopmaine D2L receptor expressed in CHO cell membrane assessed as inhibition constant by competition binding assay. Type of data set: cell membranes. A general note: Loss of bound radioactivity is the signal in a displacement assay; it reports binding, not function.

Data set [2] has as its target T1, D(2) dopamine receptor. The data set can be described thus: Displacement of [3H]-N-methylspiperone from human dopmaine D2S receptor expressed in CHO cell membrane assessed as inhibition constant by competition binding assay. Type of data set: cell membranes.
For another data set, the target named is D(3) dopamine receptor (Homo sapiens, UniProt P35462). The data set can be described thus: Displacement of [3H]-N-methylspiperone from human dopmaine D3 receptor expressed in HEK293T cells assessed as inhibition constant by competition binding assay. In kind it is cell-based.
Sequence of D(3) dopamine receptor (P35462 whole entry): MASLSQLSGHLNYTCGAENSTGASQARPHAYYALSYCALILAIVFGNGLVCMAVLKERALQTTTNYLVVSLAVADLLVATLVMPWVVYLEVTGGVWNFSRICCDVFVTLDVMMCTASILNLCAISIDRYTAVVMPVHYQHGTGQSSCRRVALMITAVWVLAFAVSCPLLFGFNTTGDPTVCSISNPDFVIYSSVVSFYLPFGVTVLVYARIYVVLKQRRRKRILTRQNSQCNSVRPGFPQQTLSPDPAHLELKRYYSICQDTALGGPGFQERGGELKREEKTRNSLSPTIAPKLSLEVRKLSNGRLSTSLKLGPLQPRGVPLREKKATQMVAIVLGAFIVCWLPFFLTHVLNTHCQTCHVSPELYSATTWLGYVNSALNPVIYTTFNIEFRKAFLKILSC
The target of a further data set is D(1A) dopamine receptor (Homo sapiens, UniProt P21728). The data set can be described thus: Displacement of [3H]SCH23390 from human dopamine D1 receptor expressed in HEK293T cells assessed as inhibition constant by competition binding assay. Type of data set: cell-based.
Sequence of D(1A) dopamine receptor (P21728 whole entry): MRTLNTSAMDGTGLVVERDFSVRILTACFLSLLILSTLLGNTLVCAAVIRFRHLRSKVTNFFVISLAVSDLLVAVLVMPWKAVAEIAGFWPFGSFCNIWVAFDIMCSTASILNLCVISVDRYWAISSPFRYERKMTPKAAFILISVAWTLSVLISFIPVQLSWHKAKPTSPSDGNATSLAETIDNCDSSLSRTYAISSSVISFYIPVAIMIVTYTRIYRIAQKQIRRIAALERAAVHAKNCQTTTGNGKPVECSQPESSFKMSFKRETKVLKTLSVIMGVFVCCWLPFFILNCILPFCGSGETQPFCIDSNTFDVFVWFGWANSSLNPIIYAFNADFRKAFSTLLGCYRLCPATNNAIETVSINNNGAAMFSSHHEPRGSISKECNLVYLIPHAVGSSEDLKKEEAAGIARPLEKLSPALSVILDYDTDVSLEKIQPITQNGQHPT
A further data set has as its target D(1B) dopamine receptor (Homo sapiens, UniProt P21918). The data set can be described thus: Displacement of [3H]SCH23390 from human dopamine D5 receptor expressed in HEK293T cells assessed as inhibition constant by competition binding assay. Type of data set: cell-based.
Data set [3] has as its target T2, Alpha-1A adrenergic receptor (Homo sapiens, UniProt P35348).
T2 sequence (P35348 whole entry): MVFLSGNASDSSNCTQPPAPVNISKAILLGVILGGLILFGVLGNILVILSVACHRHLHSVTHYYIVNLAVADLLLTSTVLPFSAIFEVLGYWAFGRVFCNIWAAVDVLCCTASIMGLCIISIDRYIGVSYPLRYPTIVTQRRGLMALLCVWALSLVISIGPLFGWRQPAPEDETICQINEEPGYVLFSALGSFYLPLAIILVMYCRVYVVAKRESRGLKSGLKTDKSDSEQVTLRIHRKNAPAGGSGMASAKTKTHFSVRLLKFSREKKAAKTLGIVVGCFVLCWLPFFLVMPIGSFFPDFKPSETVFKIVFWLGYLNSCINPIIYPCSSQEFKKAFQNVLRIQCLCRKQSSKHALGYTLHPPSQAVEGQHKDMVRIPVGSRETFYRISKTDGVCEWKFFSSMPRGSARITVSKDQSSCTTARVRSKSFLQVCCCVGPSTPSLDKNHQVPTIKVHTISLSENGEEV
The data set can be described thus: Displacement of [3H]prazosin from adrenergic alpha 1A receptor (unknown origin) expressed in HEK293T cells assessed as inhibition constant by competition binding assay. Type of data set: cell-based.

Data set [4] has as its target T3, Alpha-2A adrenergic receptor (Homo sapiens, UniProt P08913).
T3 sequence (P08913 whole entry): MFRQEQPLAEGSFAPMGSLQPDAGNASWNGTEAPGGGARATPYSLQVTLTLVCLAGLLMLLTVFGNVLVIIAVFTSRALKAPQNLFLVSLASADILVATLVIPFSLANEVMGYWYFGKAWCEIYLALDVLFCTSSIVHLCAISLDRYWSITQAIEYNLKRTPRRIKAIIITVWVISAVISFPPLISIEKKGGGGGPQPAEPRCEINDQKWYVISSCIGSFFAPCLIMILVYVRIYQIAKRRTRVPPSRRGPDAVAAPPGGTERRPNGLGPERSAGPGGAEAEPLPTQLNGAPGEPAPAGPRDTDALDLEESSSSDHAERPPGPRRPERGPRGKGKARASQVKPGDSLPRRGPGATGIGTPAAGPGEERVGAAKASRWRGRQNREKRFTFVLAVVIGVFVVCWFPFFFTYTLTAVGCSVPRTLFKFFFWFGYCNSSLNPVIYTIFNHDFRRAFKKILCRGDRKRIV
The data set can be described thus: Displacement of [3H]RX821002 from adrenergic alpha 2A receptor (unknown origin) expressed in HEK293T cells assessed as inhibition constant by competition binding assay. Type of data set: cell-based.

The target of data set [5] is T4, 5-hydroxytryptamine receptor 1A (Homo sapiens, UniProt P08908).
T4 sequence (P08908 whole entry): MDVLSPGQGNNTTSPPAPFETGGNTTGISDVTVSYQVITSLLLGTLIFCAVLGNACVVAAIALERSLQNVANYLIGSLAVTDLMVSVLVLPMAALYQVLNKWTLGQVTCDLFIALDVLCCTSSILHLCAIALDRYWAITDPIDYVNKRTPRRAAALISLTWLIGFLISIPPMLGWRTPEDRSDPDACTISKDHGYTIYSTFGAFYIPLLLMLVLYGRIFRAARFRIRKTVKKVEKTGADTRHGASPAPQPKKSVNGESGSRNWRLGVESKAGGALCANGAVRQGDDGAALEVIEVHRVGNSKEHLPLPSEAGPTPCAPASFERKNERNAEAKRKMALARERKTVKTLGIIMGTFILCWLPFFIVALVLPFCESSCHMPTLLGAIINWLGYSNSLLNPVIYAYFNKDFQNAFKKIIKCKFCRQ
The data set can be described thus: Displacement of [3H][…] from 5-HT1A receptor (unknown origin) expressed in HEK293T cells assessed as inhibition constant by competition binding assay. In kind it is cell-based.

The target of data set [6] is 5-hydroxytryptamine receptor 2A (Homo sapiens, UniProt P28223). The data set can be described thus: Displacement of [3H]ketanserin from 5-HT2A receptor (unknown origin) expressed in HEK293T cells assessed as inhibition constant by competition binding assay. Type of data set: cell-based.
Sequence of 5-hydroxytryptamine receptor 2A (P28223 whole entry): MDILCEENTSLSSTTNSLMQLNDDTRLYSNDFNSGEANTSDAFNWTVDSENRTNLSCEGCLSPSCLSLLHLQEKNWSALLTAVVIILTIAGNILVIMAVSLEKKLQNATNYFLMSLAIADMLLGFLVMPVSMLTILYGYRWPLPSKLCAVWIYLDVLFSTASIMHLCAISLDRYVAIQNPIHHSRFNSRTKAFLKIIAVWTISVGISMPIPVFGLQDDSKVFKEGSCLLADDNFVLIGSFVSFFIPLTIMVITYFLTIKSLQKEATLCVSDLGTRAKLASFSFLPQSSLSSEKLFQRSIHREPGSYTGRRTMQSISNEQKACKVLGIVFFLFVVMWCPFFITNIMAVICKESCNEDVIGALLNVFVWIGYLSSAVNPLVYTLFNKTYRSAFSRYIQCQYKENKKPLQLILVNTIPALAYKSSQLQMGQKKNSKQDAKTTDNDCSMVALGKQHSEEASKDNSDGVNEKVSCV
Data set [7] is described as follows: Drug metabolism in pooled rat liver microsomes assessed as O-demethylation mediated metabolite formation at 40 uM measured upto 60 mins in the presence of NADPH by HPLC(UV) analysis. Type of data set: ADME, Microsome. The settings on record: 1 h. For orientation: Liver microsomes are vesicles of endoplasmic reticulum, rich in cytochrome P450 enzymes.
A short description of data set [8]: Drug metabolism in pooled rat liver microsomes assessed as hydroxylation mediated metabolite formation at 40 uM measured upto 60 mins in the presence of NADPH by HPLC(UV) analysis. In kind it is ADME, Microsome. The settings on record: 1 h.
Data set [9] in a line: Permeability of the compound across basal to apical membrane in human Caco-2 cells at 50 uM incubated for 4 hrs by HPLC(UV) analysis. In kind it is ADME, cell-based. The following applies: caco-2, 4 h. (Passage across Caco-2 layers is used to estimate intestinal permeability.)
Data set [10] is described as follows: Apparent permeability of the compound across basal to apical membrane in human Caco-2 cells at 50 uM incubated for 4 hrs by HPLC(UV) analysis. Type of data set: ADME, cell-based.
The nature of data set [11]: Retention time of the compound by HPLC(UV) method. In kind it is physicochemical.
Data set [12] can be described thus: Metabolic stability in pooled rat liver microsomes assessed as parent compound remaining at 40 uM measured after 60 mins in the presence of NADPH by HPLC(UV) analysis. In kind it is ADME, Microsome. The settings on record: read-out: Stability.
A short description of data set [13]: Permeability of the compound across basal to apical membrane in human Caco-2 cells at 10 uM incubated for 4 hrs by HPLC(UV) analysis. In kind it is ADME, cell-based. The following applies: caco-2, 4 h.
Data set [14] can be described thus: Permeability of the compound across basal to apical membrane in human Caco-2 cells at 10 uM incubated for 4 hrs in the presence of valspodar by HPLC(UV) analysis. In kind it is ADME, cell-based. The following applies: caco-2, 4 h.
A short description of data set [15]: Permeability of the compound across basal to apical membrane in human Caco-2 cells at 5 uM incubated for 4 hrs by HPLC(UV) analysis. The settings on record: caco-2, 4 h. In kind it is ADME, cell-based.
A short description of data set [16]: Permeability of the compound across basal to apical membrane in human Caco-2 cells at 5 uM incubated for 4 hrs in the presence of valspodar by HPLC(UV) analysis. In kind it is ADME, cell-based. The following applies: caco-2, 4 h.

Where only a bound is given, the exact number is not on record here.

T1 sequence (P14416 whole entry): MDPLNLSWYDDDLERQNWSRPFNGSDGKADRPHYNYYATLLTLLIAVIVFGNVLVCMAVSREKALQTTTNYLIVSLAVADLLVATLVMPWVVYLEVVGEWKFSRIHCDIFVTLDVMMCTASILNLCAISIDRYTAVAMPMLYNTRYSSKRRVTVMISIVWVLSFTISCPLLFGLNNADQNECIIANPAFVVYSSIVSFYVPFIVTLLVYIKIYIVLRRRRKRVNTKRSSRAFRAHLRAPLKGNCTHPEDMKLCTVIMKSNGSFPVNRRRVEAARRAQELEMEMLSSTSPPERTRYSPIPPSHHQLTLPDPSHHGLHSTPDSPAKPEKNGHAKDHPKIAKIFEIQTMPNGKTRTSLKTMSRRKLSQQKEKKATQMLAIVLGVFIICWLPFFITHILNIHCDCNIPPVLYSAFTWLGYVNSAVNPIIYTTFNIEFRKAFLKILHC
Sequence of D(1B) dopamine receptor (P21918 whole entry): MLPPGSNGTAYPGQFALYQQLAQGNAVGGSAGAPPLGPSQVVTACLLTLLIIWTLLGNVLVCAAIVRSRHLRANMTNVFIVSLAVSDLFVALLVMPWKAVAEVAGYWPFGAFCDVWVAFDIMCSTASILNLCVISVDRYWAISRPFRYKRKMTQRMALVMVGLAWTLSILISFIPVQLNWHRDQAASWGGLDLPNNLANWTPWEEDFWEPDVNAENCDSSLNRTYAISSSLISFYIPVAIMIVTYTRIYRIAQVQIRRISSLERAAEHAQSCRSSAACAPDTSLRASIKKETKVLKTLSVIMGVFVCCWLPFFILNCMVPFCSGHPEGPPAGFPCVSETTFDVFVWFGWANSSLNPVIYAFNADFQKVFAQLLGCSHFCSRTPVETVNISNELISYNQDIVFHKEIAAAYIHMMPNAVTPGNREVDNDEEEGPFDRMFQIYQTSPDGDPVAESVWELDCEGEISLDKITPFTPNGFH

In the case of `COc1ccccc1N1CCN(CCCNC(=O)Nc2ccccc2-c2ccc(-c3ccccc3)cc2)CC1`, the inhibition constant Ki was determined as 52 nM at D(2) dopamine receptor [1]; 36 nM at D(2) dopamine receptor [2]; 44 nM on D(3) dopamine receptor; 16 nM on D(1A) dopamine receptor; 350 nM at D(1B) dopamine receptor; 8.2 nM in data set [3]. Moreover, the inhibition constant (Ki) in data set [4] came out at 150 nM; in data set [5], 100 nM; in [6], 160 nM. Also, the Drug metabolism result in data set [7] and in [8] was “Metabolite_Detected” each time. Besides, in data set [9], the permeability entry is given as “Impermeable”. Besides, in [10], the basolateral-to-apical permeability (Papp B→A) at 4 h, 50 µM is greater than 1 ×10⁻⁶ cm/s. The molecule further displayed a Retention_time in data set [11] of 4.37 min.
On to `COc1ccccc1N1CCN(CCCNC(=O)Nc2ccccc2-c2ccccc2)CC1`, for which the inhibitory constant (Ki) was 210 nM at D(2) dopamine receptor [1]; 100 nM on D(2) dopamine receptor [2]; 57 nM on D(3) dopamine receptor; 730 nM at D(1A) dopamine receptor; 4500 nM at D(1B) dopamine receptor; 7.1 nM in data set [3]. Moreover, the inhibition constant Ki in data set [4] amounted to 28 nM; in data set [5] it was 25 nM; in data set [6], 960 nM. Moreover, the Drug metabolism result in data set [7] and in [8] was “Metabolite_Detected” in each case. In data set [12], the remaining at 1 h, 40 µM was found to be 57%. The permeability in [13] is 22.2%; in data set [14], 18.3%. The Retention_time in data set [11] stood at 3.91 min.
For `COc1ccccc1N1CCN(CCCNC(=O)NCc2ccccc2-c2ccccc2)CC1`, the inhibition constant Ki at D(2) dopamine receptor [1] turned out to be 190 nM; at D(2) dopamine receptor [2], 120 nM; on D(3) dopamine receptor it was 270 nM; on D(1A) dopamine receptor, 480 nM; at D(1B) dopamine receptor, 3300 nM; in [3], 11 nM. Besides, the Ki stood at 120 nM in data set [4], 62 nM in [5] and 140 nM in [6]. The Drug metabolism result in [7] and in data set [8] was “Metabolite_Detected” throughout. Besides, in [12], the remaining at 1 h, 40 µM came out at 56%. Further, the values for the permeability in data set [13] and in data set [14] were 15.7% and 10.5%, respectively. Also, in data set [11], the Retention_time worked out at 4.09 min.
Take `C[C@H]1O[C@@H](O[C@H]2[C@@H](O)C[C@H](O[C@H]3[C@@H](O)C[C@H](O[C@H]4CC[C@@]5(C)[C@H](CC[C@@H]6[C@@H]5C[C@@H](O)[C@]5(C)[C@@H](C7=CC(=O)OC7)CC[C@]65O)C4)O[C@@H]3C)O[C@@H]2C)C[C@H](O)[C@@H]1O` [DIGOXIN]: the permeability in data set [15] turned out to be 22.9%; in data set [16], 12.1%.

One may read the Ki as a dissociation constant, usually derived from enzyme kinetics or from competition with a known ligand. In general, Papp B→A refers to the apparent permeability from the basolateral to the apical side of a cell layer.
